Test results taken from patent publication US10858305B2, “Perillyl alcohol-3-bromopyruvate conjugate and methods of treating cancer” (NeOnc Technologies, Inc., priority 2016, dated 2020).
Entries after “also recorded” stand apart in the source; their conditions may differ. Read-outs that look alike come from different tables or passages of the source.

Legend:
[1] = tested on: tumor cells; assay: Cytotoxicity in the presence of necroptosis inhibitor necrostatin-1; assay type: cell-based; conditions: data not shown
Excerpt: All our data are highly consistent and point to necrosis as the overwhelmingly dominant mechanism of cell death by both 3-BP and NEO218 in our cell systems, as supported by the following observations: (i) A pan-caspase inhibitor exerted no influence on the cytotoxic IC50 of 3-BP or NEO218 (FIG. 21C). (ii) Several established protein markers of apoptosis show very little, if any, response to drug treatment (FIG. 21B). (iii) Loss of structural integrity of the plasma membrane is a hallmark of necrosis and can be documented via cellular uptake of membrane-impermeant dyes (such as propidium iodide, PI) or cellular leakage of cytosolic enzymes (such as lactate dehydrogenase, LDH). […] The loss of plasma membrane integrity is consistent with cell death induced by the severe ATP depletion observed by us (FIG. 22) and reported by others, because maintenance of the cytoplasmic transmembrane electrochemical gradients is highly energy dependent, and their loss inevitably leads to cell swelling and membrane rupture (i.e., necrosis). (iv) Rapid cell death is another characteristic of necrotic cell death. We detected PI positivity and LDH release within the first 2 hours of drug exposure (see FIG. 21A for PI; time course not shown for LDH). […] Cells were treated with 3-BP or NEO218 in the presence of necrostatin-1 (Nec-1), a commonly used inhibitor of necroptosis.

[2] = tested on: tumor cells (two cell lines, incl. MCF7/Dox); assay: Colony formation assay (CFA), 24 hours drug exposure (FIG. 5); assay type: cell-based, human; conditions: colonies after ten to fifteen days
Protocol: The effect of NEO218 on tumor cell survival and colony formation relative to 3-BP, POH and 3-BP+POH was evaluated via the colony formation assay (CFA). Six hundred cells per culture well were seeded and exposed to increasing concentrations of NEO218, 3-BP, a mix of 3-BP+POH, or POH alone. After 24 hours, all drugs were removed from cells and fresh culture medium was added. Ten to fifteen days later, the surviving cells had formed colonies of descendants, which were stained and counted.

[3] = tested on: all cell types (breast, brain, ovary, colon cancer cell lines); assay: Summary of cytotoxicity over MTT, LDH and colony formation assays (FIGS. 2-5); assay type: cell-based, human; conditions: for IC50: Homo sapiens
Excerpt: The tumor cell-killing potency of NEO218 was characterized by in vitro, short-term MTT assays (measuring viability of cells via determination of metabolic activity), LDH assays (measuring the release of lactate dehydrogenase as an indicator of leaky cell membranes, which are indicative of dying cells), and colony-formation assays (CFA, which determine long-term survival of drug-treated cells and their ability to spawn a colony of descendants). Several established cell lines derived from cancers of the breast were used as target cells (including MDA-MB-231; MDA-MB-468; T47D; MCF7; MCF7/Dox; BTB12), brain (T98G; U251), ovary (A2780), and colon (HCT116). In all cases, cells in culture were exposed to increasing concentrations of agents for 24 or 48 hours.

[4] = tested on: HCT116 cells; assay: FACS analysis for annexin V and propidium iodide; assay type: cell-based, human; conditions: for incorporation of PI (necrosis) versus annexin V (apoptosis): 2, 4 or 8 hours of treatment; for earliest detection of shift to PI-positive quadrant after onset of treatment: HCT116, 30 μM; for PI-positive cells at 8 hours: HCT116, 8 hours
Protocol: (§1) (A) FACS analysis of HCT116 cells after treatment for 2, 4, or 8 hours with vehicle, 30 μM 3-BP, 30 μM NEO218, or 1 μM staurosporine (STS). […] (B) Western blot analysis of apoptotic markers. In the top section, MDA-MB-231 cells were treated with 30 μM NEO218 or 1 μM STS for various time points. In the lower section, HCT116 cells were treated with the indicated concentrations of 3-BP, NEO218, or STS for 16 hours. In all cases cell lysates were prepared and analyzed for the well-established apoptotic markers cleaved PARP, cleaved (i.e., activated) caspase 7 (cl. C-7), and phosphorylated (i.e., active) H2AX. Actin was used as a loading control. (C) HCT116 cells were pretreated with 50 μM Z-VAD-FMK for one hour, followed by the addition of increasing concentrations of 3-BP or NEO218. Cell viability was determined by MTT assay 24 hours later. Data points are averages from n=3.
In the absence of indications that apoptotic mechanisms played a significant role in cell death induced by NEO218, necrosis was investigated as a potential key mechanism. The distinction between apoptotic and necrotic cell death was made by measuring annexin V staining (a marker of apoptosis) and PI (propidium iodide) staining (a marker of necrosis) of drug-treated cells, in comparison to non-drug-treated cells (as a control). Measurements of annexin V and PI were done by FACS analysis after 2, 4, or 8 hours of treatment. Cells were treated with NEO218, 3-BP, and staurosporine (individually), and incorporation of propidium iodide (PI, a marker of necrotic cell death) or annexin V (a marker for apoptosis) was determined by fluorescence-activated cell sorting.
The results are organized in FIG. 8 as follows: no treatment (top row), 3-BP (second row), NEO218 (third row), and staurosporine (bottom row).
Characterization of cell death was performed by flow cytometry using the Alexa Fluor® 488 Annexin V/Dead Cell Apoptosis kit (Thermo Fisher Scientific). This kit contains recombinant, green fluorophore-conjugated annexin V, which reacts with apoptotic cells, and DNA-binding, red-fluorescent propidium iodide (PI), which is impermeant to live and apoptotic cells, but stains dead cells. The different cell populations can be distinguished by green fluorescence (apoptotic cells), red fluorescence (necrotic/dead cells), and no fluorescence (live cells) during flow cytometry with 488 nm laser excitation. Control or drug-treated cells were processed as per manufacturer's instructions, followed by flow cytometry of 10,000 cells per point with an LSR II (BD Biosciences, San Jose, Calif.) at the USC Flow Cytometry Core Facility.

[5] = tested on: HCT116 colon cancer cells; assay: MTT assay with pan-caspase inhibitor zVAD pre-treatment; assay type: cell-based, human; conditions: 50 μM zVAD 1 hour before drug, MTT after 24 hours
Protocol: as §1
The capacity for NEO218 to induce apoptosis was further evaluated in a series of experiments using an MTT assay. The apoptosis-blocker zVAD (z-VAD-FMK), an agent that acts as a pan-caspase inhibitor, was used. HCT116 colon cancer cells were treated for 1 hour with or without 50 μM zVAD, followed by increasing concentrations of NEO218 or 3-BP. Twenty-four hours thereafter, cell viability was determined by MTT assay.

[6] = tested on: MCF7, 231, T47D, BTB-12, ME16C, 468, HCT116 cells; assay: MTT cytotoxic IC50 aligned with MCT1 expression levels (FIG. 14); conditions: Homo sapiens
Protocol: The expression levels of MCT1 in different tumor cell lines were determined by Western blot analysis and correlated with cytotoxic IC50 values in response of treatment of the same cells with NEO218 or 3-BP generated by MTT assay.

[7] = all cell types, FIGS. 2-5, read-out: IC50 (ability of a drug to reduce cell survival by 50%)

Compound	effect of necrostatin-1 on drug-induced cytotoxic outcome [1]	IC50 ([2]; Homo sapiens, MCF7-DOX, read-out: IC50 (cell survival and colony formation)) [µM]	IC50 [3, 7] [µM]	killing of drug-resistant cells ([3]; T98G (TMZ-resistant) and MCF7/Dox (multi-drug-resistant) cells)	incorporation of PI (necrosis) versus annexin V (apoptosis) [4]	time to initiation of cell death ([4]; FIG. 8 and LDH time course of FIG. 4) [h]	earliest detection of shift to PI-positive quadrant after onset of treatment [4] [h]	PI-positive cells at 8 hours [4]	effect of zVAD pre-treatment on drug-induced cell death [5]	IC50 ([6]; read-out: cytotoxic IC50) [µM]	inhibition of colony formation, comparison [2]	IC50 ([3]; cell types in which 3-BP is not similarly potent, read-out: concentrations required for cell death in less sensitive cell types) [µM]	incorporation of PI (necrosis) versus annexin V (apoptosis) ([4]; listed as 3-GP)	IC50 ([6]; HCT-116, read-out: cytotoxic IC50) [µM]
C=C(C)[C@@H]1CC=C(COC(=O)C(=O)CBr)CC1 [NEO218, 3-bromo-2-oxo-propionic acid 4-isopropenyl-cyclohex-1-enylmethyl ester]	no impact of Nec-1 on drug-induced cytotoxic outcome could be detected	< 10	5 to 30	effectively killed	move straight from the bottom left quadrant to the upper right quadrant; also recorded: vigorous incorporation of PI, but very little annexin V	1 to 2	2	the majority of cells was PI-positive	did not affect the cytotoxic IC50; also recorded: did not prevent induction of cell death	< 35	–	–	–	–
O=C(O)C(=O)CBr [3-BP, 3-bromopyruvate]	no impact of Nec-1 on drug-induced cytotoxic outcome could be detected	–	10 to 200	–	vigorous incorporation of PI, but very little annexin V	–	2	the majority of cells was PI-positive	did not affect the cytotoxic IC50; also recorded: did not prevent induction of cell death	> 300	substantially less potent	> 200	move straight from the bottom left quadrant to the upper right quadrant	< 100
